Measurements: patent publication US8877264B2, “Composition of skin external application containing ginseng berry extracts” (Amorepacific Corporation, priority 2007, dated 2014)

Experiments:
ceramide = assay: epidermal lipid (total ceramide) in human skin (TLC); type: in vivo; conditions: 5 wt % test material, twice every day, non-treated group = 100%
Description: In order to evaluate the effect of the ginseng berry extract of Example 1 on an increase in lipid synthesis in human skin, 0.5 wt % of Carbopol ETD 2020, 0.45% of TEA, 5 wt % of the test material and the balance of deionized water were used. On 12 adult men and women, a region corresponding to the diameter of a polypropylene conical tube was marked on the arm, and then was applied with 20 μl of each of control groups and the ginseng berry extract of Example 1 twice every day. The subjects were divided into two groups, and the production of lipid in the applied region was analyzed in the following manner by extracting lipid at day 3 and day 11. Specifically, the arm was washed with service water, and then subjected to tape stripping once with Scotch 810 Magic tape. Then, 1 ml of a mixture of cyclohexane/ethanol (4:1) was added to the tape using a cut 50-ml polypropylene conical tube as a reservoir and stirred for about 1 minute, and then the solution was transferred into a fresh tube. Then, the tape was treated with 1 ml of a mixture of cyclohexane/ethanol (1:1) in the same manner as described above, and the solution was collected in the tube. […]
After the TLC plate was developed, the size of each band was measured at a wavelength of 570 nm using TLC scanner-II (CAMAG; densitometer).

human skin = assay: whitening effect on UVB-darkened human skin (colorimeter); type: in vivo; conditions: UVB-darkened upper arm, 10 weeks of application
[1] = tested on: C57BL/6 mouse melanocytes (Mel-Ab cells); assay: melanin production inhibition in mouse melanocytes; type: cell-based; conditions: positive control, concentration not given
5-alpha-reductase = 5-alpha-reductase activity, testosterone to dihydrotestosterone; type: biochemical, rat; conditions: 100 μg extract per reaction
Description: Adult SD (Spraque-Dawley) male rats (7-8-week old) were sacrificed with diethyl ether, the abdominal prostate was extracted, and the connective tissue was removed. The prostate tissue was finely cut in buffer (0.32 M sucrose, 0.1 mM dithiothreitol and 20 mM sodium acetate), and was then suspended with a stirrer. The suspension was centrifuged, and the supernatant was collected. 5-alpha-reductase was partially purified from the supernatant in order to the activity thereof.
A portion of the above-collected supernatant was taken and placed in buffer containing 0.2 M monobasic acid and 0.2 M dibasic acid. Then, the solution was allowed to react with a ^3H-bound substrate (testosterone), and the production of the product dihydrotestosterone was measured.
The reaction solution contained 1 mM dithiothreitol, 40 mM sodium phosphate (pH 6.5), 50 μM NADPH, [1,2,6,7-^3H] testosterone/testosterone ([…]), 0.8 mg enzyme suspension and 565 μl protein.
The ginseng berry extract of Example 1 was dissolved in 10% ethanol and added in an amount of 100 μg extract/10 μl 10% ethanol per reaction. […]
The plastic sheet was dried in air, and then a VAS system was used to measure of isotopes. Specifically, the dried plastic sheet together with an X-ray film was placed in a VAS cassette, and after 1 week, the amounts of the testosterone and dihydrotestosterone isotopes remaining on the film were measured.

[2] = tested on: lipogenesis in sebaceous glands; assay: lipogenesis inhibition in hamster ear tissue (C14 uptake); type: cell-based; conditions: 0.01% test material solution, 6 hours, average of 4 hamsters
Description: The degree of lipogenesis in sebaceous glands was evaluated by evaluating the inhibition of lipogenesis through the quantification of carbon uptake required for lipogenesis.
Specifically, the ear tissue of hamsters, having abundant sebaceous glands, was biopsied, and the degree of lipogenesis was evaluated by comparatively quantifying the control group and the test materials using a radioactivity meter in C14-labeled media for 6 hours. In the test material groups, the right ear tissue of hamsters was used and 0.01% test material solutions were added to the media, and in the control group, the left ear tissue of hamsters was used and 0.01% saline was added to the media.
Meanwhile, the inhibition (%) in Table 17 was calculated according to the following equation 4 and was expressed as the average of 4 hamsters. […] [Equation 4]

Human normal fibroblasts = assay: inhibition of oxidative DNA damage, single cell gel electrophoresis (comet assay); type: cell-based; conditions: H2O2 10^-3 M; test material 10 ppm
Description: Human normal fibroblasts were cultured for 24 hr and treated with varying concentrations of each of the ginseng berry extract of Example 1 and vitamin E. After 12 hr, the cells were treated with the positive control H2O2 (final concentration: 10^−3M), and then stained by electrophoresis. […] Herein, the image analyzer KOMET 3.1 (Kinetic Imaging, England) was used to analyze the tail length (μm) resulting from the digestion of DNA in each of 25 cells, and the analysis results are shown in Table 3 below.

`OCC(O)CO` [Glycerin, glycerin] was tested, and the “production of ceramide, After 3 days of treatment” value (ceramide) was 102% and the “production of ceramide, After 11 days of treatment” value (ceramide) was 94%.

For `Oc1ccc(O)cc1` [Hydroquinone, hydroquinone], the “Skin-color brightness (ΔL*)” value (human skin) was 1.90 ± 0.13 and the Melanin production inhibition [1] was 41.1%.

`Cc1cc2nc3c(=O)[nH]c(=O)nc-3n(C[C@H](O)[C@H](O)[C@H](O)CO)c2cc1C` [Positive control group, riboflavin] was tested, and the “Conversion: radioactivity in the DHT region/total radioactivity” value (5-alpha-reductase; 37° C., 30 minutes) was 28.7% and the “Inhibition of 5-alpha-reductase” value (5-alpha-reductase; vs conversion of control group) was 32.4%.

`CC1=C(/C=C/C(C)=C/C=C/C(C)=C/C(=O)O)C(C)(C)CCC1` [retinoic acid] was tested, and the Inhibition of lipogenesis [2] was 52%.

With vitamin E the “Inhibition of oxidative damage to DNA” value (Human normal fibroblasts) was 38.9% and the Tail length (Human normal fibroblasts) was 70.6 μm.
